Data: article PMC3595096 (Biochemistry, 2012)
Where “and” joins values, the source holds several entries; their conditions need not be identical. Equal entries are not always repeated. Structures can show the parent of a compound that is named as a salt.

Experiments:
[1] = system: various subtypes of muscarinic receptor; conditions: cited from earlier work
[2] = system: monomers of the M2 receptor; conditions: cited from earlier work
[3] = molecular target: M2 receptor extracted from porcine atria (Sus scrofa, UniProt P06199); assay type: binding
human M2 receptor [4] = molecular target: T1, human M2 receptor (Homo sapiens, UniProt P08172); assay type: binding
M2 receptor [5] = molecular target: T2, M2 receptor (Sus scrofa, UniProt P06199); assay type: binding
[6] = molecular target: M2 receptor from porcine atria (Sus scrofa, UniProt P06199); experiment: biochemical; assay type: binding
human M2 receptor [7] = molecular target: T1, human M2 receptor; assay type: binding; remark: listed apart in the source
[8] = molecular target: M2 receptor in sarcolemmal membranes (Sus scrofa, UniProt P06199); experiment: biochemical; assay type: binding, porcine
[9] = system: muscarinic acetylcholine M2 receptors; conditions: cited from earlier work
M2 receptor [10] = molecular target: T2, M2 receptor; conditions: cited from earlier work

M2 receptor in sarcolemmal membranes, sequence (P06199 whole entry): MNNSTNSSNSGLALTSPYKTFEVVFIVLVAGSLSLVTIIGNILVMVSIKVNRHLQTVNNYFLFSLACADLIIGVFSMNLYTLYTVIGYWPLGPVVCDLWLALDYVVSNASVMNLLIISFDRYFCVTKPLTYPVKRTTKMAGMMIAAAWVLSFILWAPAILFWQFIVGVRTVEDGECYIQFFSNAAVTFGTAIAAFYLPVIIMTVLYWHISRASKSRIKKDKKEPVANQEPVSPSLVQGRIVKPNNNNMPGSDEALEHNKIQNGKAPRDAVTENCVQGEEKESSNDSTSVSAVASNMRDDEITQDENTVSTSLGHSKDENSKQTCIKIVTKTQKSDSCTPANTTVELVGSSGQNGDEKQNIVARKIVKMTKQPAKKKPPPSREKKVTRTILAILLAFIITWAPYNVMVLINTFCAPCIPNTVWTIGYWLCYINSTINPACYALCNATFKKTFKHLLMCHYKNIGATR
T1 sequence (P08172 whole entry): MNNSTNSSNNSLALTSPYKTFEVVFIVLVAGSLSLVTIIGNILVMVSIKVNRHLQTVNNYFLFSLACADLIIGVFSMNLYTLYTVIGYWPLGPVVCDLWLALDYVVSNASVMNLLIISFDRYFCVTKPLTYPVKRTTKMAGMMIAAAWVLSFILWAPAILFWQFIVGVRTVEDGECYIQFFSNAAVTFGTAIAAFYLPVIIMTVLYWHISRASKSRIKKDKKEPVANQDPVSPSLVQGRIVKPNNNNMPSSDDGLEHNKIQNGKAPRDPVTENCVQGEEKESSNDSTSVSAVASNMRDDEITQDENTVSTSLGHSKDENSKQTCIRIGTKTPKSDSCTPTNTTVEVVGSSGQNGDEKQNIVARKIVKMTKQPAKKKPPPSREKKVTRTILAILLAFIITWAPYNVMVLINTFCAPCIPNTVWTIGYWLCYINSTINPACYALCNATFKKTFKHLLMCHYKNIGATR
T2 sequence (P06199 whole entry): as the sequence (P06199 whole entry) above
M2 receptor extracted from porcine atria, sequence (P06199 whole entry): as above
M2 receptor from porcine atria, sequence (P06199 whole entry): as above

In the case of `Clc1cccc(Cl)c1CO/N=C/c1cc[n+](CCC[n+]2ccc(/C=N/OCc3c(Cl)cccc3Cl)cc2)cc1` [Duo-3], the Hill coefficient [1] is given as “greater than 1”.

In the case of `COc1ccc2c(c1)c1c3c(c4c5ccccc5n(C)c4c1n2CC(O)CN(C)C)C(=O)NC3=O` (stereo not shown) [Go7874], the Hill coefficient [1] is given as “greater than 1”.

For `COC(=O)[C@@]1(OC)C[C@H]2O[C@]1(C)n1c3ccccc3c3c4c(c5c6ccccc6n2c5c31)C(=O)N(C)C4` [KT5823], the Hill coefficient [1] is given as “greater than 1”.

In the case of `C[N+]1(C)[C@@H]2C[C@@H](OC(=O)[C@H](CO)c3ccccc3)C[C@H]1[C@@H]1O[C@@H]12` [N-[^3H]methylscopolamine, N-[^3H]Methylscopolamine], the “rate constant of dissociation” value [2] is given as 0.036 ± 0.001, the “observed rate constant for dissociation kobsd, range of values” [3] is given as 0.179 to 0.247 min⁻¹ and the “observed rate constant for dissociation kobsd, range of values” (human M2 receptor [4]) is given as 0.054 to 0.059 min⁻¹. For the same compound, the “rate constant of net dissociation k (mean)” value (human M2 receptor [4]) was 0.053 ± 0.002.

For `CN1[C@@H]2CC[C@H]1C[C@@H](OC(=O)C(CO)c1ccccc1)C2` (stereo partly shown) [atropine, Atropine sulfate], the “Hill coefficient for inhibition of N-[3H]methylscopolamine” value (M2 receptor [5]) was “indistinguishable from 1”.

In the case of `CC[N+](CC)(CC)CCOc1cccc(OCC[N+](CC)(CC)CC)c1OCC[N+](CC)(CC)CC` [gallamine, gallamine triethiodide], the “log K” value [2] is listed as −4.12, the EC50 [6] is listed as roughly 71 µM and the “nH(1)” value (human M2 receptor [7]) is listed as 2.41. The “cooperativity factor (1/α), Scheme 2” value [8] was “about 70”, the EC50 ([8]; log K1) was 0.0537 µM and 0.282 µM and the cooperativity factor [9] was 46.

For `Nc1c2c(nc3ccccc13)CCCC2` [tacrine], the Hill coefficient (M2 receptor [10]) is given as “exceed 1” and the Hill coefficient [1] is given as “greater than 1”.
